This note sets out measurements from article PMC6354011 (Scientific Reports, 2019).

SMILES strings stand for the structures. Where “and” joins values, the source holds several entries; their conditions need not be identical. Equal values may be shown once. Read-outs that look alike come from different tables or passages of the source.

Test [1] concerns the target T1, equine serum butyrylcholinesterase (BChE, EC 3.1.1.8) (Equus caballus, UniProt P81908).
T1 construct: equine serum butyrylcholinesterase (BChE, EC 3.1.1.8); purchased Sigma-Aldrich (USA); host or cells: equine serum
The test can be described thus: biochemical. Format: biochemical. Particulars: for BChE % inhibition: single read. From the text: (§1) Ellman’s colorimetric method with minor modification was employed in the determination of AChE and BChE inhibitory activities. Electric eel acetylcholinesterase (AChE, EC 3.1.1.7), equine serum butyrylcholinesterase (BChE, EC 3.1.1.8), 5,5′-Dithiobis(2-nitrobenzoic acid) (DTNB) and sodium phosphate dibasic (Na2HPO4) were purchased from Sigma-Aldrich (USA). S-butyrylthiocholine chloride (BTCC) from Sigma-Aldrich (Switzerland), acetylthiocholine iodide (ATCI) from Sigma-Aldrich (United Kingdom) and sodium phosphate monobasic (NaH2PO4) from Sigma-Aldrich (Germany) were purchased. […] Ethanol was used to replace the sample as a control in this assay.

Test [2] addresses T2, Electric eel acetylcholinesterase (AChE, EC 3.1.1.7) (Electrophorus electricus, UniProt O42275).
T2 construct: purchased Sigma-Aldrich (USA)
The test can be described thus: biochemical.
Excerpt: as §1

Setting [3] is: mean ± SD, n = 3, read-out: IC50 (µM) BChE.
[4] abbreviates: mean ± SD, n = 3, read-out: IC50 (µM) AChE.
Setting [5] is: N = 3, unit not given (µg/mL scale), read-out: BChE IC50, Tukey HSD homogeneous subsets (group mean) (converted).
The mark [6] stands for this setting: average of three reads, read-out: BChE IC50 (µM) Average.
The mark [7] stands for this setting: average of three reads, read-out: BChE IC50 (µg/mL) Average (converted).
The mark [8] stands for this setting: first read, read-out: BChE IC50 (µM) First read.
The mark [9] stands for this setting: first read, read-out: BChE IC50 (µg/mL) First read (converted).
Setting [10] is: second read, read-out: BChE IC50 (µM) Second read.
The mark [11] stands for this setting: second read, read-out: BChE IC50 (µg/mL) Second read (converted).
Where [12] appears, read: third read, read-out: BChE IC50 (µM) Third read.
Setting [13] is: third read, read-out: BChE IC50 (µg/mL) Third read (converted).
The mark [14] stands for this setting: average of three reads, read-out: AChE IC50 (µM) Average.
The mark [15] stands for this setting: average of three reads, read-out: AChE IC50 (µg/mL) Average (converted).
Setting [16] is: first read, read-out: AChE IC50 (µM) First read.
[17] abbreviates: second read, read-out: AChE IC50 (µM) Second read.
[18] abbreviates: single read, unit not printed at place (µg/mL), read-out: AChE IC50 from regression on raw-data page (converted).
Setting [19] is: third read, read-out: AChE IC50 (µM) Third read.
The mark [20] stands for this setting: second read, read-out: AChE IC50 (µg/mL) Second read (converted).
[21] abbreviates: third read, read-out: AChE IC50 (µg/mL) Third read (converted).
[22] abbreviates: first read, read-out: AChE IC50 (µg/mL) First read (converted).

T2 sequence (O42275 24-633): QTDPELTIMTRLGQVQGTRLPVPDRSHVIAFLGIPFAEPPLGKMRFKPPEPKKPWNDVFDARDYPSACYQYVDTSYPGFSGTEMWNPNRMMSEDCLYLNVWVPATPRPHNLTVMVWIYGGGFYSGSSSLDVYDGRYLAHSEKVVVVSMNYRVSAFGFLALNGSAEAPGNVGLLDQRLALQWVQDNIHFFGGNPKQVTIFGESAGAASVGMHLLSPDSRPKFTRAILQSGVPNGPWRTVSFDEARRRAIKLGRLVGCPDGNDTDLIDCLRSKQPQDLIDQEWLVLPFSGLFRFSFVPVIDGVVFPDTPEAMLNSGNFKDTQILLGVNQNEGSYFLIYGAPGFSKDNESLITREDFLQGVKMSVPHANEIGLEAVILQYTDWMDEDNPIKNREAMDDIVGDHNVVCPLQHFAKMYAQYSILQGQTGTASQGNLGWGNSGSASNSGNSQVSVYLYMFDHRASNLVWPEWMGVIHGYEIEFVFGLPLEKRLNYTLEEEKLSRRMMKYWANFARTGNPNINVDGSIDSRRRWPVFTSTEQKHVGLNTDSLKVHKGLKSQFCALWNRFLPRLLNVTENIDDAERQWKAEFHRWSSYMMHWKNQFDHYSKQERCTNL
T1 sequence (P81908 whole entry): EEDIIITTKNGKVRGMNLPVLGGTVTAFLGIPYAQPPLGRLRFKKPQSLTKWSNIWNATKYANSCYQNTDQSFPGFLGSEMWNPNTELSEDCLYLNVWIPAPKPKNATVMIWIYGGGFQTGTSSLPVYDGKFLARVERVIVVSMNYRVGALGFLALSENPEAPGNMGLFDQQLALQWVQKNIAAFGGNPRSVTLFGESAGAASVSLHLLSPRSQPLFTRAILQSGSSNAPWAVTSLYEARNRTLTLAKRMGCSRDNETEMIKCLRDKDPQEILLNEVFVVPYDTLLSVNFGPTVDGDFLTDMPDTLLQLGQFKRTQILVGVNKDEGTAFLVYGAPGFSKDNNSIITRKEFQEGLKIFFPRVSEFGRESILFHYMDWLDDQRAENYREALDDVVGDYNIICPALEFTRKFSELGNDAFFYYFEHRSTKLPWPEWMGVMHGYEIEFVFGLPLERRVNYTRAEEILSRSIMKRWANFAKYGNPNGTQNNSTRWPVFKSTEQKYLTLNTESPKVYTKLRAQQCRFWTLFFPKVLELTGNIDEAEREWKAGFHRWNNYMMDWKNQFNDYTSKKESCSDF

`c1ccn2cc(C34CC5CC(CC(C5)C3)C4)nc2c1` [Compound 2a, 2-(adamantan-1-yl)imidazo[1,2-a]pyridine]: the IC50 in test [1] (setting [3]) and in test [2] (setting [4]) was > 2000 µM throughout.
`Cc1cccn2cc(C34CC5CC(CC(C5)C3)C4)nc12.O` [Compound 2b, 2-(adamantan-1-yl)-8-methylimidazo[1,2-a]pyridine hydrate]: the IC50 in test [1] (setting [5]) is 663 µM; in test [1] (setting [6]) it was 706 µM; in test [1] (setting [7]), 660 µM; in test [1] (setting [8]), 681 µM; in test [1] (setting [9]), 637 µM; in test [1] (setting [3]), 706 ± 37 µM. The IC50 in test [1] (setting [10]) was 748 µM; in test [1] (setting [11]), 700 µM; in test [1] (setting [12]) it was 689 µM; in test [1] (setting [13]) it was 644 µM; in test [2] (N = 3, unit not printed (µg/mL scale), read-out: AChE IC50, Tukey HSD homogeneous subsets (group mean) (converted)), 614 µM; in test [2] (setting [14]) it was 657 µM. Besides, the IC50 is 614 µM in test [2] (setting [15]); 721 µM in test [2] (setting [16]); 657 ± 60 µM in test [2] (setting [4]); 646 µM in test [2] (setting [17]); 674 µM and 605 µM and 564 µM in test [2] (setting [18]); 603 µM in test [2] (setting [19]). Further, the BChE % inhibition in test [1] (conc 50 (µg/mL)) is 21.17% and 17.3469% and 18.49%; in test [1] (conc 100 (µg/mL)), 28.06% and 27.68% and 30.36%; in test [1] (conc 200 (µg/mL)), 49.87% and 45.66% and 43.75%; in test [1] (conc 300 (µg/mL)) it was 64.41% and 61.35% and 67.86%; in test [1] (conc 400 (µg/mL)), 72.45% and 75.51%; in test [1] (conc 500 (µg/mL)) it was 80.48% and 74.74% and 73.60%. Also, the BChE % inhibition in test [1] (conc 600 (µg/mL)) is 81.63% and 77.81%; in test [1] (conc 700 (µg/mL)), 82.40% and 85.08% and 88.14%. Moreover, the AChE % inhibition is 23.63% and 19.6906% and 32.91% in test [2] (conc 50 (µg/mL), single read); 27.71% and 37.97% and 34.60% in test [2] (conc 100 (µg/mL), single read); 38.54% and 49.65% and 47.82% in test [2] (conc 150 (µg/mL), single read); 52.60% and 54.71% and 61.74% in test [2] (conc 200 (µg/mL), single read); 60.34% and 65.68% and 64.70% in test [2] (conc 250 (µg/mL), single read); 75.67% and 76.23% and 73.56% in test [2] (conc 300 (µg/mL), single read).
Regarding `Cc1ccn2cc(C34CC5CC(CC(C5)C3)C4)nc2c1.O` [Compound 2c, 2-(adamantan-1-yl)-7-methylimidazo[1,2-a]pyridine hydrate], the IC50 is > 2000 µM in test [1] (setting [3]); 270 µM in test [2] (setting [14]); 252 µM in test [2] (setting [15]); 293 µM in test [2] (setting [16]); 270 ± 21 µM in test [2] (setting [4]); 267 µM in test [2] (setting [17]). For the same molecule, the IC50 in test [2] (setting [20]) is 249 µM; in test [2] (setting [18]), 274 µM; in test [2] (setting [19]), 250 µM; in test [2] (setting [21]) it was 234 µM. Further, the AChE % inhibition was 20.55% and 27.0778% and 32.32% in test [2] (conc 25 (µg/mL), single read); 41.33% and 47.36% and 42.61% in test [2] (conc 50 (µg/mL), single read); 56.96% and 48.25% and 49.14% in test [2] (conc 100 (µg/mL), single read); 68.34% and 71.41% and 72.20% in test [2] (conc 150 (µg/mL), single read); 71.21% and 69.72% and 76.25% in test [2] (conc 200 (µg/mL), single read); 76.15% and 78.73% and 78.33% in test [2] (conc 250 (µg/mL), single read).
For `Cc1ccc2nc(C34CC5CC(CC(C5)C3)C4)cn2c1` [Compound 2d, 2-(adamantan-1-yl)-6-methylimidazo[1,2-a]pyridine], the IC50 in test [1] (setting [3]) and in test [2] (setting [4]) was > 2000 µM throughout.
Regarding `Clc1ccn2cc(C34CC5CC(CC(C5)C3)C4)nc2c1` [Compound 2e, 2-(adamantan-1-yl)-7-chloroimidazo[1,2-a]pyridine hydrate], the IC50 in test [1] (setting [3]) and in test [2] (setting [4]) was > 2000 µM in each case.
Take `c1ccc(-c2ccc(-c3cn4ccccc4n3)cc2)cc1` [Compound 2f, 2-([1,1′-biphenyl]-4-yl)imidazo[1,2-a]pyridine]: the IC50 in test [1] (setting [3]) is > 2000 µM; in test [2] (setting [14]), 208 µM; in test [2] (setting [15]) it was 208 µM; in test [2] (setting [16]), 228 µM; in test [2] (setting [22]), 228 µM; in test [2] (setting [4]), 208 ± 17 µM. Moreover, the IC50 in test [2] (setting [17]) is 196 µM; in test [2] (setting [20]) it was 196 µM; in test [2] (setting [19]), 200 µM; in test [2] (setting [21]) it was 200 µM. In addition, the AChE % inhibition in test [2] (conc 30 (µg/mL), single read) is -1.6523% and -0.07%; in test [2] (conc 40 (µg/mL), single read) it was 19.47% and 31.90% and 23.42%; in test [2] (conc 60 (µg/mL), single read), 46.62% and 65.66% and 72.27%; in test [2] (conc 70 (µg/mL), single read), 57.54% and 72.63% and 80.68%; in test [2] (conc 80 (µg/mL), single read), 86.28% and 82.61% and 80.17%.
Regarding `Cc1cccn2cc(-c3ccc(-c4ccccc4)cc3)nc12` [Compound 2g, 2-([1,1′-biphenyl]-4-yl)-8-methylimidazo[1,2-a]pyridine], the IC50 in test [1] (setting [5]) is 315 µM; in test [1] (setting [6]) it was 315 µM; in test [1] (setting [7]), 315 µM; in test [1] (setting [8]), 311 µM; in test [1] (setting [9]), 310 µM; in test [1] (setting [3]), 315 ± 6 µM. Further, the IC50 in test [1] (setting [10]) was 322 µM; in test [1] (setting [11]), 322 µM; in test [1] (setting [12]), 312 µM; in test [1] (setting [13]), 311 µM; in test [2] (setting [14]) it was 288 µM; in test [2] (setting [15]), 288 µM. Also, the IC50 in test [2] (setting [16]) was 343 µM; in test [2] (setting [22]), 343 µM; in test [2] (setting [4]), 288 ± 48 µM; in test [2] (setting [17]) it was 264 µM; in test [2] (setting [20]), 263 µM; in test [2] (setting [19]), 258 µM. For the same molecule, in test [2] (setting [21]), the IC50 was 258 µM. For the same molecule, the BChE % inhibition in test [1] (conc 60 (µg/mL)) is 7.74% and 0.19% and 6.00%; in test [1] (conc 80 (µg/mL)) it was 35.59% and 45.45% and 37.33%; in test [1] (conc 90 (µg/mL)), 48.36% and 35.01% and 51.84%; in test [1] (conc 100 (µg/mL)), 61.12% and 73.89% and 66.92%; in test [1] (conc 110 (µg/mL)), 84.33% and 65.76% and 66.92%; in test [1] (conc 120 (µg/mL)), 106.96% and 76.79% and 121.47%. The AChE % inhibition in test [2] (conc 100 (µg/mL), single read) was 66.67% and 62.62% and 65.90%; in test [2] (conc 150 (µg/mL), single read), 81.50% and 87.67% and 85.81%; in test [2] (conc 200 (µg/mL), single read), 83.04% and 90.94% and 100.39%; in test [2] (conc 250 (µg/mL), single read) it was 106.74% and 92.10% and 107.32%; in test [2] (conc 300 (µg/mL), single read), 140.85% and 130.64% and 128.52%.
For `Cc1ccc2nc(-c3ccc(-c4ccccc4)cc3)cn2c1` [Compound 2h, 2-([1,1′-biphenyl]-4-yl)-6-methylimidazo[1,2-a]pyridine], the IC50 in test [1] (setting [5]) was 484 µM; in test [1] (setting [6]), 496 µM; in test [1] (setting [7]) it was 496 µM; in test [1] (setting [8]) it was 485 µM; in test [1] (setting [9]), 484 µM; in test [1] (setting [3]), 496 ± 27 µM. The IC50 in test [1] (setting [10]) was 477 µM; in test [1] (setting [11]), 476 µM; in test [1] (setting [12]), 528 µM; in test [1] (setting [13]), 527 µM; in test [2] (setting [14]), 79.2 µM; in test [2] (setting [15]), 79.1 µM. Also, the IC50 in test [2] (setting [16]) is 83.8 µM; in test [2] (setting [22]), 83.7 µM; in test [2] (setting [4]), 79 ± 10 µM; in test [2] (setting [17]), 86.3 µM; in test [2] (setting [20]) it was 86.2 µM; in test [2] (setting [19]) it was 67.4 µM. In test [2] (setting [21]), the IC50 was 67.3 µM. Moreover, the BChE % inhibition in test [1] (conc 50 (µg/mL)) was 28.12% and 20.13% and 20.63%; in test [1] (conc 100 (µg/mL)) it was 19.13% and 27.12% and 17.64%; in test [1] (conc 150 (µg/mL)) it was 48.09% and 45.09% and 49.08%; in test [1] (conc 200 (µg/mL)) it was 83.03% and 81.03% and 75.54%; in test [1] (conc 250 (µg/mL)), 102.50% and 115.97% and 86.02%. The AChE % inhibition in test [2] (conc 25 (µg/mL), single read) was 58.20% and 76.39% and 68.79%; in test [2] (conc 50 (µg/mL), single read) it was 92.28% and 79.96% and 93.21%; in test [2] (conc 75 (µg/mL), single read), 92.40% and 88.83% and 96.55%; in test [2] (conc 100 (µg/mL), single read), 99.77% and 84.22% and 106.56%.
